Reference: publication PMC4613811 (Lung cancer (Amsterdam, Netherlands), 2015)
Like-named read-outs stand apart in the source and are kept apart here.

Tests used:
FMO3 = conditions: in vitro; cited from earlier work
CYP3A4 = conditions: in vitro; cited from earlier work
[1] = Plasma pharmacokinetics of dovitinib, phase I trial; type: in vivo; conditions: human, oral
CYP1A2 = conditions: caffeine as CYP1A2 substrate; cited from earlier work
[2] = cited from earlier work
[3] = previous studies with dovitinib; cited from earlier work
[4] = type: in vivo, human
[5] = system: NSCLC with EGFR activating mutations; conditions: cited from earlier work
[6] = co-administered strong CYP3A4 inducer rifampin; cited from earlier work
[7] = cited from earlier work; remark: listed apart in the source
[8] = NSCLC patients who currently smoke; cited from earlier work
[9] = healthy volunteers, 150 mg dose, cited from earlier work
[10] = post-dovitinib relative to pre-dovitinib

## CN1CCN(c2ccc3nc(-c4c(N)c5c(F)cccc5[nH]c4=O)[nH]c3c2)CC1 [Dovitinib]
FMO3
  share of metabolism by FMO3: 65–83%
CYP3A4
  share of metabolism by CYP3A4: 17–35%
[1]
  Tmax: 6 h
  half-life: 32 ± 19 h
CYP1A2
  reduction of the AUC of caffeine: 96%
[2]
  effect of food on bioavailability: food does not alter the bioavailability
[3]
  decreased appetite, regardless of grade: 37.0%
  diarrhea, regardless of grade: 68%
  fatigue, regardless of grade: 40.5%
  nausea, regardless of grade: 66.7%
  vomiting, regardless of grade: 60.6%

## C#Cc1cccc(Nc2ncnc3cc(OCCOC)c(OCCOC)cc23)c1 [Erlotinib]
[4]; human, plasma, oral, 150 mg
  AUC(0-t): 41000 ng·h/mL
  half-life: 50 ± 53 h
[4]; p < 0.01, six patients
  decrease in AUC0–24 during dovitinib co-administration: 97%
[4]; p = 0.02, six patients
  decrease in Cmax during dovitinib co-administration: 93%
[4]; [10]
  AUC0–24h geometric mean ratio (D + E:E), mean: 0.03
  Cmax geometric mean ratio (D + E:E), mean: 0.07
  T1/2, terminal geometric mean ratio (D + E:E), mean: 0.10
[5]; NSCLC patients with EGFR activating mutations
  time to development of resistance in the majority of patients: less than 1 year
[5]; NSCLC patients with known EGFR activating mutations
  response rates (RRs): 60–70%
[6]
  decrease in AUC with rifampin: 66%
  decrease in Cmax with rifampin: 29%
[7]
  median half-life: 36.2 h
[8]
  steady-state trough concentration, fold lower compared to non-smokers: 2 fold
[9]; non-smokers
  AUC: 18,726 ng × h/mL
[9]; nonsmokers
  Cmax: 1056 ng/mL
[9]; smokers vs non-smokers
  decrease in AUC in smokers: 64%
[9]; smokers vs nonsmokers
  decrease in Cmax in smokers: 35%
[9]; smokers
  AUC: 6718 ng·h/mL
  Cmax: 689 ng/mL

## C#Cc1cccc(Nc2ncnc3cc(OCCOC)c(OCCO)cc23)c1 [OSI-420]
[4]; Erlotinib alone (E), Day 14 ± 4, normalized to erlotinib 150 mg dose, mean ± SD
  AUC0–24h: 5381 ± 2982 ng·h/mL
[4]; [10]
  AUC0–24h geometric mean ratio (D + E:E), mean: 0.06
  Cmax geometric mean ratio (D + E:E), mean: 0.17
